# Assay results taken from patent US11053282B2, “Peptoid affinity ligands” (MIKE-ANN, LLC, priority 2016, dated 2021).
# *1 amine or outer side, *2 acyl side, *3 side chain or, on linkers, in order; H or OH if unused. Where a SMILES comes first, the peptide text is derived from it. [ ]: non-standard residue; d: D form. ξ: configuration not given here. Gly(N(CH2)2(3-indolyl)) = O=C(O)CNCCc1c[nH]c2ccccc12; NGly(CH2(3-pyridyl)) = O=C(O)CNCc1cccnc1; ξW = NC(Cc1c[nH]c2ccccc12)C(=O)O; Gly(N(CH2)3NH2) = NCCCNCC(=O)O; Cit = NC(=O)NCCC[CH](N)C(=O)O; Cysteamide = C(CS[*:3])N[*:1]; ξCit = NC(=O)NCCCC(N)C(=O)O; ξH = NC(Cc1c[nH]cn1)C(=O)O; Nphe = O=C(O)CNCc1ccccc1; NPrGly = CCCNCC(=O)O; ξV = CC(C)C(N)C(=O)O
# Biological target: polyclonal human IgG
# Test: Adsorption isotherm of peptoid affinity resins against polyclonal human IgG
# Format: binding
# Conditions: IgG in PBS, 30 minutes; for Kd: affinity constant from hyperbola fit of adsorption isotherm, peptoid conjugated to chromatographic resin, read-out: Kd × 10^−6
# Experimental: The affinity for the peptoid-resin combinations was determined by measuring the adsorption isotherm of each resin against polyclonal human IgG (Pakimna et al., J Applied Sci., 12(11): 1136-1141, 2012). Briefly, 0.050 mL of 50% resin slurry was pipetted into 6 individual wells of a 96-well filter plate (0.45 micron, PVDF, Harvard Apparatus). The resin was washed with 2×250 μL PBS using a vacuum manifold. To an individual well, 0.25 mL of a human polyclonal IgG solution at different concentrations (10, 5, 2.5, 1.25, 0.625, and 0.3125 mg/mL) was added. The resin/IgG suspension was agitated gently on a rocking table for 30 minutes. The fluid was then collected via vacuum, and the resin was washed with 0.25 mL of PBS. The filtrate and wash were then analyzed by the BCA assay to determine the residual IgG concentration relative to the starting concentration of the solution.
# The equilibrium concentrations were then used to determine the capacity of the resin at each IgG concentration using the following formula: q=Volumesample×(Initial Concentration−Equilibrium Concentration)/Volumeresin
# A plot of q versus equilibrium concentration was generated and the data fit with a hyperbola to determine the affinity constant (Kd) and the maximum capacity (qmax) according to the below formula, where C=the equilibrium concentration of antibody in solution: q=qmax×C/(kd+C) Typical adsorption isotherm is shown in FIG. 2. Tabulated Kd and qmax data is found in Table 2.
# [1] = maximum capacity (qmax) of resin from hyperbola fit of adsorption isotherm
Kd,Compound,Qmax [1],Qmax (mg/mL) [1]
33 µM,NC(=O)NCCCC(NC(=O)CN(Cc1ccccc1)C(=O)CNCc1cccnc1)C(=O)NC(CCCNC(N)=O)C(=O)NCCS (stereo not shown) [Ligand 12-55-6] (H-[NGly(CH2(3-pyridyl))][Nphe][Cit][Cit]-Cysteamide; configuration not given here),97 mg/mL,–
7.9 µM,CCCN(CC(=O)NCCS)C(=O)CN(CCc1c[nH]c2ccccc12)C(=O)CNC(=O)C(CCCNC(N)=O)NC(=O)CN(CCc1c[nH]c2ccccc12)C(=O)CNCc1cccnc1 (stereo not shown) [Ligand 12-65-1] (H-[NGly(CH2(3-pyridyl))][Gly(N(CH2)2(3-indolyl))][ξCit]G[Gly(N(CH2)2(3-indolyl))][NPrGly]-Cysteamide),65 mg/mL,–
15 µM,CCCN(CC(=O)NCCS)C(=O)CN(CCc1c[nH]c2ccccc12)C(=O)CNC(=O)C(CCCNC(N)=O)NC(=O)CN(CCc1c[nH]c2ccccc12)C(=O)[C@@H](N)Cc1c[nH]cn1 (stereo partly shown) [Ligand 12-65-2] (H-H[Gly(N(CH2)2(3-indolyl))][ξCit]G[Gly(N(CH2)2(3-indolyl))][NPrGly]-Cysteamide),53 mg/mL,–
3.6 µM,NC(=O)NCCCC(N)C(=O)N(CC(=O)N(CCc1c[nH]c2ccccc12)CC(=O)NCC(=O)N(CCc1c[nH]c2ccccc12)CC(=O)NCCS)Cc1cccnc1 (stereo not shown) [Ligand 12-65-5] (H-[ξCit][NGly(CH2(3-pyridyl))][Gly(N(CH2)2(3-indolyl))]G[Gly(N(CH2)2(3-indolyl))]-Cysteamide),64 mg/mL,–
3.6 µM,NC(=O)NCCCC(NC(=O)CN(Cc1ccccc1)C(=O)CNCc1cccnc1)C(=O)NC(CCCNC(N)=O)C(=O)N(CC(=O)NCCS)Cc1cccnc1 (stereo not shown) [Ligand 12-65-8] (H-[NGly(CH2(3-pyridyl))][Nphe][Cit][Cit][NGly(CH2(3-pyridyl))]-Cysteamide; configuration not given here),–,57. mg/mL
2.9 µM,NC(=O)NCCCC(NC(=O)CN(CCc1c[nH]c2ccccc12)C(=O)CNCc1cccnc1)C(=O)N(CCc1c[nH]c2ccccc12)CC(=O)NCCS (stereo not shown) [Ligand 16-81-4] (H-[NGly(CH2(3-pyridyl))][Gly(N(CH2)2(3-indolyl))][ξCit][Gly(N(CH2)2(3-indolyl))]-Cysteamide),64 mg/mL,–
5.3 µM,CCCN(CC(=O)NCCS)C(=O)C(Cc1c[nH]c2ccccc12)NC(=O)CNC(=O)CN(CCCN)C(=O)CN(CCc1c[nH]c2ccccc12)C(=O)CNCc1cccnc1 (stereo not shown) [Ligand 16-83-2] (H-[NGly(CH2(3-pyridyl))][Gly(N(CH2)2(3-indolyl))][Gly(N(CH2)3NH2)]G[ξW][NPrGly]-Cysteamide),49 mg/mL,–
7.3 µM,CCCN(CC(=O)NCCS)C(=O)CN(CCc1c[nH]c2ccccc12)C(=O)CNC(=O)CN(CCCN)C(=O)C(Cc1c[nH]c2ccccc12)NC(=O)CNCc1cccnc1 (stereo not shown) [Ligand 16-83-3] (H-[NGly(CH2(3-pyridyl))][ξW][Gly(N(CH2)3NH2)]G[Gly(N(CH2)2(3-indolyl))][NPrGly]-Cysteamide),51 mg/mL,–
6.5 µM,CCCN(CC(=O)NCCS)C(=O)CN(CCc1c[nH]c2ccccc12)C(=O)CNC(=O)CN(CCCN)C(=O)CN(CCc1c[nH]c2ccccc12)C(=O)C(N)Cc1c[nH]cn1 (stereo not shown) [Ligand 16-83-5] (H-[ξH][Gly(N(CH2)2(3-indolyl))][Gly(N(CH2)3NH2)]G[Gly(N(CH2)2(3-indolyl))][NPrGly]-Cysteamide),62 mg/mL,–
4.6 µM,CC(C)C(NC(=O)CN(CCc1c[nH]c2ccccc12)C(=O)CNC(=O)CN(CCCN)C(=O)CN(CCc1c[nH]c2ccccc12)C(=O)CNCc1cccnc1)C(=O)NCCS (stereo not shown) [Ligand 16-83-6] (H-[NGly(CH2(3-pyridyl))][Gly(N(CH2)2(3-indolyl))][Gly(N(CH2)3NH2)]G[Gly(N(CH2)2(3-indolyl))][ξV]-Cysteamide),56 mg/mL,–
7.7 µM,NC(=O)NCCCC(NC(=O)CNCCc1c[nH]c2ccccc12)C(=O)N(CCc1c[nH]c2ccccc12)CC(=O)N(CC(=O)NCCS)Cc1cccnc1 (stereo not shown) [Ligand 16-83-7] (H-[Gly(N(CH2)2(3-indolyl))][ξCit][Gly(N(CH2)2(3-indolyl))][NGly(CH2(3-pyridyl))]-Cysteamide),53 mg/mL,–
4.9 µM,NC(=O)NCCCC(N)C(=O)N(CCc1c[nH]c2ccccc12)CC(=O)N(CC(=O)N(CCc1c[nH]c2ccccc12)CC(=O)NCCS)Cc1cccnc1 (stereo not shown) [Ligand 16-83-9] (H-[ξCit][Gly(N(CH2)2(3-indolyl))][NGly(CH2(3-pyridyl))][Gly(N(CH2)2(3-indolyl))]-Cysteamide),52 mg/mL,–
6.5 µM,NC(=O)NCCCC(NC(=O)CN(CCc1c[nH]c2ccccc12)C(=O)CNCc1cccnc1)C(=O)NC(CCCNC(N)=O)C(=O)NCCS (stereo not shown) [Ligand 16-84-2],48 mg/mL,–
4.9 µM,NC(=O)NCCCC(N)C(=O)N(CC(=O)N(CCc1c[nH]c2ccccc12)CC(=O)N(CC(=O)NCCS)Cc1cccnc1)Cc1cccnc1 (stereo not shown) [Ligand 16-84-3] (H-[ξCit][NGly(CH2(3-pyridyl))][Gly(N(CH2)2(3-indolyl))][NGly(CH2(3-pyridyl))]-Cysteamide),56 mg/mL,–
